Assay [1] has as its system KLRG1+ ILC2s. Kind of assay: In vitro proliferation assay (CellTrace Violet, flow cytometry). The settings on record: IL-25 with α-CGRP plus adenylate cyclase inhibitor. The assay is classed as cell-based, mouse. The method, then: (§1) Flow cytometry and cell sorting. Cells were washed and suspended in MACS buffer (pH 7.4; PBS plus 2% FCS and 2 mM EDTA). Nonspecific antibody binding was blocked with CD16/CD32 (2.4G2) antibody for 15 min on ice. Cells were then stained with antibody cocktails for 30 min at 4° C. Lineage-positive cells were excluded for analyzing ILCs by staining for CD3ε (145-2C11), CD5 (53-7.3), CD19 (6D5), CD11b (M1/70), CD8 (53-6.7), CD11c (N418), Gr-1 (RB6-8C5), TCRγδ (eBioGL3 (GL-3, GL3)) and TCRβ (H57-597). To analyze mast cells, lineage-positive cells were excluded by staining for CD3ε, CD5, CD19, CD11c and SiglecF (E50-2440). For surface staining, antibodies for KLRG1 (2F1), CD45 (30-F11), CD127 (A7R34), CCR6 (29-2L17), NKp46 (29A1.4), CD90.2 (53-2.1), FcεRI (Mar-1), IgD (11-26c.2a) and ST2 (DJ8) were used. For intracellular staining, cells were fixed and permeabilized using the Foxp3 transcription factor staining buffer set, followed by staining with anti-GATA-3 (TWAJ) or anti-RORγt (B2D) antibodies. Dead cells were excluded with 7-AAD or Fixable Viability Dye eFluor 780. Flow cytometry was performed on Cytoflex (Beckman Coulter) and analyzed with FlowJo software. Sorting was performed with the SH800S Cell Sorter (Sony Biotechnology).
ILC2 culture. […]
For orientation: A flow cytometer gives signals particle by particle.

The subject of another assay is TDAG8 (GPR65). The settings on record: cited from earlier work.
Another assay has as its target T1, TDAG8 (Rattus norvegicus, UniProt A0A8I6AHC6).
T1 construct: host or cells: rat, in vivo (endogenous receptor)
The settings on record: in vivo; cited from earlier work.

The test system of assay [2] is KLRG1+ ILC2s. As to the kind of experiment: IL-25-induced in vivo ILC2 activation model. Details: species or system mouse. The settings on record: IL-25 administration alone.
Text: Intraperitoneal administration of α-CGRP impaired IL-25-induced expansion of KLRG1^+ ILC2s (FIGS. 5B and 12A), consistent with the in vitro results. Recent work has shown that intestinal KLRG1^+ ILC2s can migrate to mesenteric lymph nodes (mLNs) and other tissues during inflammation via sphingosine 1-phosphate (S1P)-mediated chemotaxis (Huang et al., 2018). To determine whether α-CGRP primarily impacts intestinal or mLN ILC2s, Applicants relied on the fact that intestinal GATA3^+ ILC2s are generally phenotypically KLRG1^+ST2^− (data not shown), whereas mLN ILC2s are mainly ST2^+ at steady state (FIG. 5C). IL-25 administration increased the frequency of both KLRG1^+ST2^− inflammatory ILC2s and ST2^+ ILC2s in mLNs (FIGS. 5C-E and 12B). […] Thus, α-CGRP preferentially regulates the response of intestinal KLRG1^+ST2^− ILC2s. […] Taken together, α-CGRP antagonized expansion of intestinal KLRG1^+ ILC2s in two different type 2 inflammatory models.
To activate ILC2s in vivo, 200 ng of IL-25 was intraperitoneally injected into 7-10 weeks old mice daily for two days. 1 μg α-CGRP was injected together as noted.
as §1
Immunofluorescence staining and imaging. The small intestines were fixed in 2% PFA, embedded in O.C.T. Compound and sliced into 10 μm by frozen section. The slides were blocked with 0.1% Triton X-100, 2% FCS and donkey serum. […] The images were analyzed with ImageJ.

The next assay concerns intestinal KLRG1+ ILC2s. Kind of assay: Bulk RNA-seq of intestinal KLRG1+ ILC2s stimulated in vitro. The assay is classed as cell-based, mouse. The settings on record: IL-25 alone in vitro. The text has this:
To determine if α-CGRP can directly trigger signaling in ILC2s and impact their transcriptional states under inflammatory conditions, Applicants performed bulk RNA-seq of KLRG1^+ ILC2s isolated from the small intestine and stimulated in vitro with IL-25 alone or together with α-CGRP. […] Thus, α-CGRP inhibits IL-25-induced proliferation and activation of intestinal KLRG1+ILC2s.
The presence at homeostasis of α-CGRP receptors on ILC2s and α-CGRP's expression on ChAT^+ intestinal neurons led Applicants to hypothesize that it has an effect on ILC2s during homeostasis. To test this hypothesis, Applicants next measured the expression profiles of intestinal KLRG1^+ ILC2s stimulated in vitro by α-CGRP alone, and identified genes differentially expressed under this signal (FIG. 6D, Methods).
ILC2 culture. Sort-purified intestinal KLRG1^+ ILC2s were incubated in RPMI supplemented with 10% FCS, 10 mM Hepes, 1 mM sodium pyruvate, 10% FBS, 80 μm 2-mercaptoethanol, 2 mM glutamine, 100 U/ml penicillin, […] streptomycin, 100 ng/ml IL-2 and 100 ng/ml IL-7 in 96-well round bottom plate at 37° C. and 5% CO2. If indicated, the culture was supplemented with 100 ng/ml IL-25. For the in vitro proliferation assay, cells from different mice were pooled and labeled with CellTrace Violet, and then cultured at 1,000-1,500 cells per well with 10 μg/ml α-CGRP for 60 hours. When indicated, 10 μM forskolin or 1 μM SQ 22, 536 in DMSO was supplied and cells were cultured for 40 hours. For bulk RNA-seq, cells from individual mice were stimulated at 200 cells per well with 0.4 μg/ml α-CGRP for 3 hours. For bulk ATAC-seq, cells were stimulated with 0.4 μg/ml α-CGRP for 2 hours.
Bulk RNA-seq. 200 ILC2s from each condition were lysed in 10 ul TCL buffer plus 0.5% 2-Mercaptoethanol. Libraries were processed with SMART-Seq2 (Picelli et al., 2013) with at least three replicates per condition, and paired-end sequenced (75 bp×2) with a […] Nextseq 500 high output V2 kit.
Reads were aligned to the mouse reference genome (NCBI 38, mm10) using Bowtie (Langmead et al., 2009) with default parameters, and expression abundances were estimated using RSEM software (Li and Dewey, 2011). The differential gene expression analysis was performed with edgeR (Robinson et al., 2010) with default parameters.

This is an account of results in US20220143148A1, “COMPOSITIONS AND METHODS FOR MODULATING CGRP SIGNALING TO REGULATE INTESTINAL INNATE LYMPHOID CELLS” (The Broad Institute, Inc., priority 2019, published 2022).

T1 sequence (A0A8I6AHC6 1-337): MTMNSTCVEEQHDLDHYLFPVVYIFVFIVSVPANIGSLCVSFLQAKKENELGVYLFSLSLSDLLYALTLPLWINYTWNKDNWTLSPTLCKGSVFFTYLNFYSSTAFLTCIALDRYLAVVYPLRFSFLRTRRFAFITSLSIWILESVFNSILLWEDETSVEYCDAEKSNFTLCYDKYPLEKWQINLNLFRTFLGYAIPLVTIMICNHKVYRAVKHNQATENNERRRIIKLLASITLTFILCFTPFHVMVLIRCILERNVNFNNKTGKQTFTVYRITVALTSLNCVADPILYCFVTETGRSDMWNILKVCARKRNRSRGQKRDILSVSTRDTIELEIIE

As to `Nc1ncnc2c1ncn2C1CCCO1` (stereo not drawn) [SQ22, 536, reference compound], the “α-CGRP inhibition of ILC2 proliferation” value with KLRG1+ ILC2s [1] was “partially rescues”.
In the case of `CN1N=C(SCc2ccc(Cl)cc2Cl)Sc2c1cnn(C)c2=O` [BTB09089, 3-[(2,4-dichlorobenzyl)thio]-1,6-dimethyl-5,6-dihydro-1H-pyridazino[4,5-e][1,3,4]thiadiazin-5-one], the “TDAG8 activation in vitro” value in the assay on TDAG8 (GPR65) was “activate”. Also, on TDAG8, the “efficacy in ischemic stroke murine disease model” value is on record as “in vivo efficacy”.

B1: IL-25: cytokine used to activate ILC2s in vitro and in vivo (protein, UniProt Q8VHH8 17-169, looked up)
Interleukin-25: VSLRIQEGCSHLPSCCPSKEQEPPEEWLKWSSASVSPPEPLSHTHHAESCRASKDGPLNSRAISPWSYELDRDLNRVPQDLYHARCLCPHCVSLQTGSHMDPLGNSVPLYHNQTVFYRRPCHGEEGTHRRYCLERRLYRVSLACVCVRPRVMA
As to B1, in the assay on KLRG1+ ILC2s [2], the “frequency of KLRG1+ST2− inflammatory ILC2s in mLNs” value is “increased” and the “frequency of ST2+ ILC2s in mLNs” value is “increased”. The “activation phenotype (expression of type 2 cytokines Il13, Il5 and mitotic genes such as Myc)” value in the assay with intestinal KLRG1+ ILC2s is recorded as “induced the expected activation phenotype”.
